The values that follow come from patent US8722849B2, “Polypeptides” (Novo Nordisk A/S, priority 2011, dated 2014).

Converted amounts (≈) assume the structure as drawn. Like-named read-outs stand apart in the source and are kept apart here. Starred links: 1 amine or outer side, 2 acyl side, 3 side chain; linkers in the order of their positions; H or OH if unused. Positions of bridges follow the written chain, without caps; N, C: chain ends. Residues, ends and D or L forms follow the SMILES beside them. *: point of attachment. C20 diacid = O=C(O)CCCCCCCCCCCCCCCCCCC(=O)*; γGlu = O=C(O)[C@H](CCC(=O)[*:2])N[*:1]

A short description of data set [1]: Assay (IV) determination of solubility. The format is physicochemical. The essentials: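 Solubility is measured across pH 3.0–8.0 by mixing a ~500 nmol/ml aqueous polypeptide stock 1:1 with 100 mM glycylglycine or bistrispropane buffers. Samples stand 18 hours at room temperature, then are centrifuged and the soluble concentration is determined by HPLC.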
Data set [2] has as its target T1, human calcitonin receptor (Homo sapiens, UniProt P30988).
T1 construct: expressed in transfected cells; host or cells: BHK570
T1 sequence (P30988 25-474): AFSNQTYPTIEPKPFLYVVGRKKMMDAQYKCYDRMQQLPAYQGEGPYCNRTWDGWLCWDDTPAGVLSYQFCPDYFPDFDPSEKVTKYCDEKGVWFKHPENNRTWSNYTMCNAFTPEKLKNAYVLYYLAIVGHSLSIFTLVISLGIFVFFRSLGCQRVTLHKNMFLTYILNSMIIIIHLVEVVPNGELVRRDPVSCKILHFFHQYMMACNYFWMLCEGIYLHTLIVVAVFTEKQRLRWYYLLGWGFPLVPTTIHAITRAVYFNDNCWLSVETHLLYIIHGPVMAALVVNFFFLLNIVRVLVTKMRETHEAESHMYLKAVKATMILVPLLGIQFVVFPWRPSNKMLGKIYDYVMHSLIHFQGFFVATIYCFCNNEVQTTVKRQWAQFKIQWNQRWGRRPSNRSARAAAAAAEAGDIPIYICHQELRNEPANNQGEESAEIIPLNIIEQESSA
Briefly: Assay (II)a functional CRE-luciferase assay, human calcitonin receptor. The format is cell-based. The conditions noted are these: Table 7; human calcitonin (CTa) receptor.

In data set [3] the target is T2, human amylin receptor (amylin 3(a) receptor: human calcitonin receptor + RAMP-3) (Homo sapiens, UniProt O60896+P30988).
T2 construct: expressed in transfected cells; host or cells: BHK570
T2 sequence (P30988 25-474): T1 sequence (P30988 25-474)
T2 sequence (O60896 24-148 partner): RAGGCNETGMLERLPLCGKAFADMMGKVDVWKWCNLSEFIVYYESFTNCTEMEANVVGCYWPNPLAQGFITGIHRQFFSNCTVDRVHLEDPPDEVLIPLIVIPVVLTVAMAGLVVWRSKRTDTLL
As to the kind of experiment: Assay (II)a functional CRE-luciferase assay, human amylin receptor. The class given is cell-based. To be noted: Table 2; BHK amylin 3(a)-receptor/CRE-luc cells.

The nature of data set [4]: Assay (III) ThT fibrillation assay for physical stability. The format is physicochemical. The essentials: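 Freshly prepared formulations, pH-adjusted, with 1 μM ThT; four or eight replicates incubated at 37 °C under 960 rpm orbital shaking. Fluorescence (ex 444/em 485 nm) read every 20 min; […]. Peptide concentration measured by RP-HPLC before and after the run.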

The mark [5] stands for this setting: bistrispropane buffer, pH 6, pH 6.0, read-out: Solubility pH 6.0.
The mark [6] stands for this setting: bistrispropane buffer, pH 6.5, pH 6.5, read-out: Solubility pH 6.5.
Setting [7] is: bistrispropane buffer, pH 7, pH 7.0, 18 hours at room temperature, Table 3, read-out: Solubility pH 7.0.
Setting [8] is: bistrispropane buffer, pH 7, pH 7.0, read-out: Solubility pH 7.0.
Where [9] appears, read: bistrispropane buffer, pH 7.5, pH 7.5, read-out: Solubility pH 7.5.
The mark [10] stands for this setting: bistrispropane buffer, pH 8, pH 8.0, read-out: Solubility pH 8.0.
Where [11] appears, read: glycylglycine buffer, pH 3, pH 3.0, read-out: Solubility pH 3.0.
Setting [12] is: glycylglycine buffer, pH 4, pH 4.0, 18 hours at room temperature, Table 2, read-out: Solubility pH 4.0.
Setting [13] is: glycylglycine buffer, pH 4, pH 4.0, read-out: Solubility pH 4.0.
Setting [14] is: glycylglycine buffer, pH 5, pH 5.0, read-out: Solubility pH 5.0.

As for `CC[C@H](C)[C@H](NC(=O)[C@@H]1CCCN1C(=O)CNC(=O)[C@H](Cc1ccccc1)NC(=O)[C@H](CC(N)=O)NC(=O)[C@H](CCC(N)=O)NC(=O)[C@H](CO)NC(=O)[C@H](CO)NC(=O)[C@H](Cc1c[nH]cn1)NC(=O)[C@H](Cc1c[nH]cn1)NC(=O)[C@H](CC(C)C)NC(=O)[C@H](Cc1ccccc1)NC(=O)[C@H](CCC(=O)O)NC(=O)[C@H](C)NC(=O)[C@H](CC(C)C)NC(=O)[C@H](CCCNC(=N)N)NC(=O)[C@H](CCC(N)=O)NC(=O)[C@@H](NC(=O)[C@H](C)NC(=O)[C@@H]1CSSC[C@H](NC(=O)[C@H](CCCCN)NC(=O)CC[C@H](NC(=O)CCCCCCCCCCCCCCCCCCC(=O)O)C(=O)O)C(=O)N[C@@H](CC(N)=O)C(=O)N[C@@H]([C@@H](C)O)C(=O)N[C@@H](C)C(=O)N[C@@H]([C@@H](C)O)C(=O)N1)[C@@H](C)O)C(=O)N[C@@H](CC(C)C)C(=O)N1CCC[C@H]1C(=O)N1CCC[C@H]1C(=O)N[C@H](C(=O)N[C@@H](CC(N)=O)C(=O)N[C@H](C(=O)NCC(=O)N[C@@H](CO)C(=O)N[C@@H](CCC(N)=O)C(=O)N[C@H](C(=O)N1CCC[C@H]1C(N)=O)[C@@H](C)O)C(C)C)[C@@H](C)O` [Example 136, N-alpha-[(S)-4-Carboxy-4-(19-carboxynonadecanoylamino)butyryl]-[Glu14,His17,Gln21,Gln35,Pro37]-pramlintide] ({C20 diacid-γGlu}-KCNTATCATQRLAEFLHHSSQNFGPILPPTNVGSQTP-NH2; disulfide 2-7 (inferred)), the solubility at 18 h in data set [1] (setting [5]) was greater than 200 µM; in data set [1] (setting [6]), greater than 200 µM; in data set [1] (setting [7]), greater than 200 µM; in data set [1] (bistrispropane buffer, pH 7, pH 7.0, Table 8, read-out: Solubility pH 7.0), greater than 200 µM; in data set [1] (bistrispropane buffer, pH 7, pH 7.0, Table 9, read-out: Solubility pH 7.0), greater than 200 µM; in data set [1] (setting [8]), greater than 200 µM. Further, the solubility at 18 h in data set [1] (bistrispropane buffer, pH 7.5, pH 7.5, Table 9, read-out: Solubility pH 7.5) is greater than 200 µM; in data set [1] (setting [9]), greater than 200 µM; in data set [1] (setting [10]), greater than 200 µM; in data set [1] (setting [11]), greater than 200 µM; in data set [1] (setting [12]), greater than 200 µM; in data set [1] (setting [13]) it was greater than 200 µM. Further, the solubility at 18 h in data set [1] (setting [14]) was greater than 200 µM. In addition, the EC50 in data set [2] was 0.045 nM; in data set [3], 0.091 nM. Also, the “ThT pH 4.0 lag time” value in data set [4] (Table 8), in data set [4] (Table 9) and in data set [4] (ThT fibrillation assay) was greater than 45 h throughout. The “ThT pH 4.0 lag time (h)” value in data set [4] (ThT fibrillation assay) is recorded as greater than 45 h.
For the compound `CC[C@H](C)[C@H](NC(=O)[C@@H]1CCCN1C(=O)CNC(=O)[C@H](Cc1ccccc1)NC(=O)[C@H](CC(N)=O)NC(=O)[C@H](CC(N)=O)NC(=O)[C@H](CO)NC(=O)[C@H](CO)NC(=O)[C@H](Cc1c[nH]cn1)NC(=O)[C@@H](NC(=O)[C@H](CC(C)C)NC(=O)[C@H](Cc1ccccc1)NC(=O)[C@H](CCC(=O)O)NC(=O)[C@H](C)NC(=O)[C@H](CC(C)C)NC(=O)[C@H](CCCNC(=N)N)NC(=O)[C@H](CCC(N)=O)NC(=O)[C@@H](NC(=O)[C@H](C)NC(=O)[C@@H]1CSSC[C@H](NC(=O)[C@H](Cc2c[nH]cn2)NC(=O)CC[C@H](NC(=O)CCCCCCCCCCCCCCCCCCC(=O)O)C(=O)O)C(=O)N[C@@H](CC(N)=O)C(=O)N[C@@H]([C@@H](C)O)C(=O)N[C@@H](C)C(=O)N[C@@H]([C@@H](C)O)C(=O)N1)[C@@H](C)O)C(C)C)C(=O)N[C@@H](CC(C)C)C(=O)N1CCC[C@H]1C(=O)N1CCC[C@H]1C(=O)N[C@H](C(=O)N[C@@H](CC(N)=O)C(=O)N[C@H](C(=O)NCC(=O)N[C@@H](CO)C(=O)N[C@@H](CC(N)=O)C(=O)N[C@H](C(=O)N1CCC[C@H]1C(N)=O)[C@@H](C)O)C(C)C)[C@@H](C)O` [Example 109, N-alpha-[(S)-4-Carboxy-4-(19-carboxynonadecanoylamino)butyryl]-[His1,Glu14,Pro37]-pramlintide] ({C20 diacid-γGlu}-HCNTATCATQRLAEFLVHSSNNFGPILPPTNVGSNTP-NH2; disulfide 2-7 (inferred); C-terminus assumed), the solubility at 18 h in data set [1] (setting [5]), in data set [1] (setting [6]), in data set [1] (setting [7]), in data set [1] (setting [8]), in data set [1] (setting [9]) and in data set [1] (setting [10]) was greater than 200 µM in each case. The solubility at 18 h in data set [1] (setting [11]), in data set [1] (setting [12]), in data set [1] (setting [13]) and in data set [1] (setting [14]) was greater than 200 µM in each case. Besides, the EC50 stood at 0.0725 nM in data set [2] and 0.0845 nM in data set [3]. Moreover, the “ThT pH 4.0 lag time (h)” value in data set [4] (ThT fibrillation assay) is given as 6.3 h.
`CC[C@H](C)[C@H](NC(=O)[C@@H]1CCCN1C(=O)CNC(=O)[C@H](Cc1ccccc1)NC(=O)[C@H](CC(N)=O)NC(=O)[C@H](CO)NC(=O)[C@H](CO)NC(=O)[C@H](CO)NC(=O)[C@H](Cc1c[nH]cn1)NC(=O)[C@@H](NC(=O)[C@H](CC(C)C)NC(=O)[C@H](Cc1ccccc1)NC(=O)[C@H](CCC(=O)O)NC(=O)[C@H](C)NC(=O)[C@H](CC(C)C)NC(=O)[C@H](CCCNC(=N)N)NC(=O)[C@H](CCC(N)=O)NC(=O)[C@@H](NC(=O)[C@H](C)NC(=O)[C@@H]1CSSC[C@H](NC(=O)[C@H](Cc2c[nH]cn2)NC(=O)CC[C@H](NC(=O)CCCCCCCCCCCCCCCCCCC(=O)O)C(=O)O)C(=O)N[C@@H](CC(N)=O)C(=O)N[C@@H]([C@@H](C)O)C(=O)N[C@@H](C)C(=O)N[C@@H]([C@@H](C)O)C(=O)N1)[C@@H](C)O)C(C)C)C(=O)N[C@@H](CC(C)C)C(=O)N[C@@H](CO)C(=O)N[C@@H](CO)C(=O)N[C@H](C(=O)N[C@@H](CC(N)=O)C(=O)N[C@H](C(=O)NCC(=O)N[C@@H](CO)C(=O)N[C@@H](Cc1c[nH]cn1)C(=O)N[C@H](C(=O)N[C@@H](Cc1ccc(O)cc1)C(N)=O)[C@@H](C)O)C(C)C)[C@@H](C)O` [Example 110, N-alpha-[(S)-4-Carboxy-4-(19-carboxynonadecanoylamino)butyryl]-[His1,Glu14,Ser21,Ser28,Ser29,His35]-pramlintide] ({C20 diacid-γGlu}-HCNTATCATQRLAEFLVHSSSNFGPILSSTNVGSHTY-NH2; disulfide 2-7 (inferred)): the solubility at 18 h in data set [1] (setting [5]) was 1 µM (≈ 4.4 µg/mL); in data set [1] (setting [6]), 1 µM (≈ 4.4 µg/mL); in data set [1] (setting [8]), 1 µM (≈ 4.4 µg/mL); in data set [1] (setting [9]) it was 1 µM (≈ 4.4 µg/mL); in data set [1] (setting [11]), greater than 200 µM; in data set [1] (setting [12]) it was greater than 200 µM. Further, the solubility at 18 h in data set [1] (setting [13]) was greater than 200 µM; in data set [1] (setting [14]) it was greater than 200 µM; in data set [1] (pH 8.0, read-out: Solubility pH 8.0), 1 µM (≈ 4.4 µg/mL). In addition, the EC50 in data set [2] is 0.349 nM; in data set [3], 0.921 nM. The “ThT pH 4.0 lag time (h)” value in data set [4] (ThT fibrillation assay) worked out at 1.7 h.
